Assay type in all cases: cell-based
In one assay the test system is Mino cells. In words: Antiproliferative effect, MTS cell viability assay, Mino cells. Particulars: Homo sapiens, MINO, Mino mantle cell lymphoma cells; read-out: IC50 (anti-proliferation) Mino cells. In a few lines: (§1)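 Absorbance at 490 nm of formazan, formed by metabolically active cells from MTS tetrazolium, served as the viability measure after a 72 h treatment across a 0.001–10 μM concentration series plus untreated control.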
Background: Tetrazolium dyes change colour on reduction, which living cells bring about.

The next assay addresses BTK (Homo sapiens, UniProt Q06187). The experiment in a line: BTK degradation, DC50 and Dmax of Table 1 (cell line not given). Particulars: for DC50: concentration giving 50% reduction of BTK expression level. Set-up: endogenous in cells.
In another assay the test system is JeKo-1 cells. The experiment in a line: Antiproliferative effect, MTS cell viability assay, JeKo-1 cells. Conditions: Homo sapiens; JeKo-1 mantle cell lymphoma cells; read-out: IC50 (anti-proliferation) JeKO-1 cells. In a few lines: as §1

Chain of BTK (Q06187 whole entry): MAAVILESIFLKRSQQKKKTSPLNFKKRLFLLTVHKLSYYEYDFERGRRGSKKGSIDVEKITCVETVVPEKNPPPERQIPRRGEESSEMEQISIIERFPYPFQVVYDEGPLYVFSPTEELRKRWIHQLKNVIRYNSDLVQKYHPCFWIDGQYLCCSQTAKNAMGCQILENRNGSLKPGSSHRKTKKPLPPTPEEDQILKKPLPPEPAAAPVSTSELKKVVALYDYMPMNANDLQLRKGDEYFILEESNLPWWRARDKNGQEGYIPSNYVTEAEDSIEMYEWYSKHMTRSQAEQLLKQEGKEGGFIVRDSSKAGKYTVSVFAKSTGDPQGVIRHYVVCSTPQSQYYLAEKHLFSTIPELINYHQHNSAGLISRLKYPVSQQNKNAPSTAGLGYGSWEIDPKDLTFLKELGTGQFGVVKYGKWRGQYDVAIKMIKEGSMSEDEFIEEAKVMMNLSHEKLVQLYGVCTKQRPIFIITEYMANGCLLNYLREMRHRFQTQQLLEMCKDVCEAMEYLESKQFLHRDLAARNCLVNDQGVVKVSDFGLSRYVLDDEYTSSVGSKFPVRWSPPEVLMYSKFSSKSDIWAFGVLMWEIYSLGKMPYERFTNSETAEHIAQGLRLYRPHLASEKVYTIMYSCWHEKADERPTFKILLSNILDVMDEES

Turning to `Nc1ncnc2c1c(-c1ccc(Oc3ccccc3)cc1)nn2[C@@H]1CCCN(C(=O)N2CCN(CCCN3CCC(c4ccc5c(c4)CN(C4CCC(=O)NC4=O)C5=O)CC3)CC2)C1` (stereo partly drawn) [Compound 112, 3-(5-(1-(3-(4-((R)-3-(4-amino-3-(4-phenoxyphenyl)-1H-pyrazolo[3,4-d]pyrimidin-1-yl)piperidine-1-carbonyl)piperazin-1-yl)propyl)piperidin-4-yl)-1-oxoisoindolin-2-yl)piperidine-2,6-dione], the IC50 in the assay with Mino cells was 1000 to 10000 nM. At BTK, the maximal degradation (Dmax) was more than 75% and the DC50 is more than 50 nM. Moreover, the IC50 in the assay with JeKo-1 cells fell in the range of 1000 to 10000 nM.
With `Nc1ncnc2c1c(-c1ccc(Oc3ccccc3)cc1)nn2[C@@H]1CCCN(CC2CCN(CCCC3CCN(c4ccc5c(c4)C(=O)N(C4CCC(=O)NC4=O)C5=O)CC3)CC2)C1` (stereo partly drawn) [Compound 141, 5-(4-(3-(4-(((R)-3-(4-amino-3-(4-phenoxyphenyl)-1H-pyrazolo[3,4-d]pyrimidin-1-yl)piperidin-1-yl)methyl)piperidin-1-yl)propyl)piperidin-1-yl)-2-(2,6-dioxopiperidin-3-yl)isoindoline-1,3-dione], the IC50 in the assay on Mino cells and with JeKo-1 cells was 1000 to 10000 nM each time. This molecule also showed a Dmax at BTK of more than 75%. For the same molecule, the DC50 at BTK was more than 50 nM.
On to `Nc1ncnc2c1c(-c1ccc(Oc3ccccc3)cc1)nn2[C@@H]1CCCN(C(=O)N2CCN(CCCN3CCN(c4ccc5c(c4)C(=O)N(C4CCC(=O)NC4=O)C5=O)CC3)CC2)C1` (stereo partly drawn) [Compound 107, 5-(4-(3-(4-((R)-3-(4-amino-3-(4-phenoxyphenyl)-1H-pyrazolo[3,4-d]pyrimidin-1-yl)piperidine-1-carbonyl)piperazin-1-yl)propyl)piperazin-1-yl)-2-(2,6-dioxopiperidin-3-yl)isoindoline-1,3-dione], for which the IC50 in the assay with Mino cells was 1000 to 10000 nM; in the assay with JeKo-1 cells, more than 10000 nM. Further, at BTK, the Dmax was more than 75%. The molecule further came in with a DC50 on BTK of more than 50 nM.
On the same counts, the results for `Nc1ncnc2c1c(-c1ccc(Oc3ccccc3)cc1)nn2[C@@H]1CCCN(C(=O)N2CCC(C3CCN(c4ccc5c(c4)CN(C4CCC(=O)NC4=O)C5=O)CC3)CC2)C1` (stereo partly drawn) [Compound 50, 3-(5-(1′-((R)-3-(4-amino-3-(4-phenoxyphenyl)-1H-pyrazolo[3,4-d]pyrimidin-1-yl)piperidine-1-carbonyl)-[4,4′-bipiperidin]-1-yl)-1-oxoisoindolin-2-yl)piperidine-2,6-dione] are 1000 to 10000 nM, 1000 to 10000 nM, more than 90% and 10 to 50 nM.
The like results for `Nc1ncnc2c1c(-c1ccc(Oc3ccccc3)cc1)nn2C1CCN(CC2CCN(C(=O)N3CCC(N4CCN(c5ccc6c(c5)CN(C5CCC(=O)NC5=O)C6=O)CC4)CC3)CC2)CC1` (stereo not drawn) [Compound 38, 3-(5-(4-(1-(4-((4-(4-amino-3-(4-phenoxyphenyl)-1H-pyrazolo[3,4-d]pyrimidin-1-yl)piperidin-1-yl)methyl)piperidine-1-carbonyl)piperidin-4-yl)piperazin-1-yl)-1-oxoisoindolin-2-yl)piperidine-2,6-dione] were, in that order, less than 1000 nM, less than 1000 nM, more than 90% and 10 to 50 nM.
On the same counts, the results for `Nc1ncnc2c1c(-c1ccc(Oc3ccccc3)cc1)nn2C1CCN(C(=O)N2CCN(CCCC3CCN(c4ccc5c(c4)C(=O)N(C4CCC(=O)NC4=O)C5=O)CC3)CC2)CC1` (stereo not drawn) [Compound 121, 5-(4-(3-(4-(4-(4-amino-3-(4-phenoxyphenyl)-1H-pyrzolo[3,4-d]pyrimidin-1-yl)piperidine-1-carbonyl)piperazin-1-yl)propyl)piperidin-1-yl)-2-(2,6-dioxopiperidin-3-yl)isoindoline-1,3-dione] are 1000 to 10000 nM, 1000 to 10000 nM, more than 75% and more than 50 nM.

For orientation: Dmax means the greatest extent of degradation seen. High values mean deep degradation, low ones shallow degradation. The term DC50 denotes the concentration giving 50% degradation.
